These results are taken from US12486239B2, “Benzotriazole compound, light absorber, and resin composition” (MITSUI CHEMICALS, INC., priority 2019, dated 2025).

Format in all cases: physicochemical
Data set [1] in a line: Maximum absorption wavelength and gram absorption coefficient, toluene solution 0.002 g/L (second embodiment). The following applies: optical path length 10 mm. On the procedure:
The maximum absorption wavelength of the benzotriazole compound of the second embodiment is measured using a spectrophotometer (for example, Shimadzu Spectrophotometer UV-1600 manufactured by Shimadzu Corporation) at optical path length of 10 mm using a toluene solution having a concentration of 0.002 g/L.
In Examples according to the second embodiment, the maximum absorption wavelength and the gram absorption coefficient of the benzotriazole compound were measured using a Shimadzu Spectrophotometer UV-1600 manufactured by Shimadzu Corporation at an optical path length of 10 mm using a toluene solution having a concentration of 0.002 g/L.

Data set [2] can be described thus: Heat resistance: TG5% decomposition temperature. The following applies: nitrogen atmosphere, heating rate 10° C./min; for Decomposition temperature (Tg-5% by mass): Table 6; for T-5% by mass: Table 2. The method, then: In each Example and Comparative Example, the decomposition temperature was measured by the following method.
Using a thermal analyzer Rigaku ThermoPlus Evo TG8120, the TG5% decomposition temperature (T-5% by mass) was measured under a nitrogen atmosphere at a heating rate of 10° C./min and a temperature range of from room temperature to 500° C.
The higher the T-5% by mass, the higher the heat resistance.
The decomposition temperature of the benzotriazole compound obtained in each Example and Comparative Example was measured by the following method.

The nature of data set [3]: Solubility to various organic solvents. The following applies: room temperature; for Solubility: PGMEA / Solubility: EA / Solubility: MEK / Solubility: MMA / Solubility: Toluene: Table 6; for Solubility: EA / Solubility to various organic solvents: Ethyl acetate: ethyl acetate; for Solubility: MEK / Solubility to various organic solvents: MEK: methyl ethyl ketone; for Solubility: MMA / Solubility to various organic solvents: MMA: methyl methacrylate; for Solubility to various organic solvents: PGMEA / Solubility to various organic solvents: Ethyl acetate / Solubility to various organic solvents: MEK / Solubility to various organic solvents: MMA / Solubility to various organic solvents: Toluene: Table 1. The method, then:
As Comparative Example 1, the solubility of TINUVIN326 (manufactured by BASF Japan Ltd.) represented by the following Formula (TI) was measured by the following method.
To 0.5 g of the benzotriazole compound, the various organic solvents shown in Table 1 were added such that the total mass was about 10 g, the mixture was irradiated with ultrasonic waves for about 30 minutes, and thereafter stirred at room temperature for 2 hours to prepare a dispersion of about 10% by mass.
The dispersion was filtered through a membrane filter (0.2 μm), and the obtained residue was dried in a dryer at 60° C. for 1 hour, and then the mass of the residue was measured.
The solubility of the benzotriazole compound to the solvent was expressed by the following formula. Solubility (% by mass)=(W0−W1)/W0
W0 is the mass of the benzotriazole compound before the treatment, and W1 is the mass of the residue after drying (that is, the dissolution residue of the benzotriazole compound). In a case in which no residue remained on the filter, the solubility was determined as 5% by mass or more.
The solubility of the benzotriazole compound obtained in each Example and Comparative Example was measured by the following method.
To 0.5 g of the benzotriazole compound, the various organic solvents shown in Table 6 were added such that the total mass was about 10 g, the mixture was irradiated with ultrasonic waves for about 30 minutes, and thereafter stirred at room temperature for 2 hours to prepare a dispersion of about 10% by mass.

Data set [4] can be described thus: Maximum absorption wavelength and gram absorption coefficient, toluene solution 0.01 g/L (first embodiment). The following applies: optical path length 10 mm. On the procedure:
The maximum absorption wavelength of the benzotriazole compound of the first embodiment is measured using a spectrophotometer (for example, Shimadzu Spectrophotometer UV-1600 manufactured by Shimadzu Corporation) at an optical path length of 10 mm using a toluene solution having a concentration of 0.01 g/L.
In Examples according to the first embodiment, the maximum absorption wavelength and the gram absorption coefficient of the benzotriazole compound were measured using a Shimadzu Spectrophotometer UV-1600 manufactured by Shimadzu Corporation at an optical path length of 10 mm using a toluene solution having a concentration of 0.01 g/L.

With `Cc1cc(-n2nc3ccc(SCCOCCOCCSc4ccc5nn(-c6cc(C)cc(C(C)(C)C)c6O)nc5c4)cc3n2)c(O)c(C(C)(C)C)c1` [Compound D1], in data set [1], the gram absorption coefficient amounted to 59200 mL/g/cm and the maximum absorption is 368.5 nm. In addition, the “Decomposition temperature (Tg-5% by mass)” value in data set [2] was 331.7 °C. Moreover, in data set [3], the “Solubility: PGMEA” value is at most 1 % by mass, the “Solubility: EA” value is at most 1 % by mass, the “Solubility: MEK” value is recorded as at most 1 % by mass and the “Solubility: MMA” value is reported as at most 2 % by mass. The “Solubility: Toluene” value in data set [3] is 3≤ % by mass.
With `Cc1cc(-n2nc3ccc(SCCOCCSc4ccc5nn(-c6cc(C)cc(C(C)(C)C)c6O)nc5c4)cc3n2)c(O)c(C(C)(C)C)c1` [Compound D2], in data set [1], the gram absorption coefficient was 63500 mL/g/cm and the maximum absorption worked out at 368.0 nm. Further, in data set [2], the “Decomposition temperature (Tg-5% by mass)” value amounted to 322.2 °C. In data set [3], the “Solubility: MEK” value was 3≤ % by mass, the “Solubility: MMA” value is recorded as 3≤ % by mass and the “Solubility: Toluene” value is given as 3≤ % by mass.
The molecule `CCC(C)(C)C(=O)Nc1ccc(-n2nc3ccc(Sc4ccc(C(C)(C)C)cc4)cc3n2)c(O)c1` [Compound (101)] returned a T-5% by mass in data set [2] of 366.1 °C. For the same molecule, in data set [4], the gram absorption coefficient is recorded as 7.02×10^4 g/mL·cm and the maximum absorption was 371.5 nm. Moreover, in data set [3], the “Solubility to various organic solvents: PGMEA” value is given as 1 % by mass, the “Solubility to various organic solvents: Ethyl acetate” value came to 1.5 % by mass, the “Solubility to various organic solvents: MEK” value stood at 3 % by mass and the “Solubility to various organic solvents: MMA” value was determined as 3 % by mass. Also, in data set [3], the “Solubility to various organic solvents: Toluene” value was 1 % by mass.
Take `CCCCCCC(=O)Nc1ccc(-n2nc3ccc(Cl)cc3n2)c(O)c1` [Compound (53)]: the T-5% by mass in data set [2] was 323.5 °C. In data set [4], the gram absorption coefficient is 7.9×10^4 g/mL·cm and the maximum absorption came out at 359.0 nm. Moreover, in data set [3], the “Solubility to various organic solvents: PGMEA” value amounted to 1 % by mass, the “Solubility to various organic solvents: Ethyl acetate” value was found to be 1 % by mass, the “Solubility to various organic solvents: MEK” value was 1 % by mass and the “Solubility to various organic solvents: MMA” value was 1 % by mass. In addition, the “Solubility to various organic solvents: Toluene” value in data set [3] turned out to be 0.5 % by mass.
In data set [1], `Cc1cc(-n2nc3ccc(SCCOC(=O)c4cc(C(=O)OCCSc5ccc6nn(-c7cc(C)cc(C(C)(C)C)c7O)nc6c5)cc(C(=O)OCCSc5ccc6nn(-c7cc(C)cc(C(C)(C)C)c7O)nc6c5)c4)cc3n2)c(O)c(C(C)(C)C)c1` [Compound D3] had a gram absorption coefficient of 62000 mL/g/cm and a maximum absorption of 364.5 nm. Also, in data set [2], the “Decomposition temperature (Tg-5% by mass)” value amounted to 335.1 °C. For the same molecule, in data set [3], the “Solubility: PGMEA” value is listed as at most 1 % by mass, the “Solubility: EA” value was at most 1 % by mass, the “Solubility: MEK” value is recorded as at most 0.5 % by mass and the “Solubility: MMA” value is at most 0.5 % by mass. Moreover, the “Solubility: Toluene” value in data set [3] is 1.5≤ % by mass.
